In US20100130604A1, “USE OF ROSMARINIC ACID IN MANUFACTURE OF MEDICAMENTS FOR TREATING OR PREVENTING HEPATIC AND RENAL DISEASES” (SHANGDONG LUYE NATURAL DRUG RESEARCH AND DEVELOPMENT CO., …, priority 2006, published 2010):
Marks after values point to notes of the source that are not given here.

Experiments:
CTGF mRNA = assay: RT-PCR detection of CTGF mRNA expression in HSC-T6; type: cell-based; details: for CTGF mRNA expression rate (%): control 98.5
Procedure: Total RNA was extracted from the cell lysate obtained in section 2.3 according the manufacturer's instructions with UNIQ-10 column total RNA extraction kit. A UV spectrophotometer was used to measure the concentration and purity. This was repeated three times and the total RNA concentration was calculated.
Reaction system: 1 μL of RT product; 10 μL of 2×PCR Master; 1 μL of each of sense primer and anti-sense primer; added double distilled water to 20 μL.
Sense primer: 5′-[…]-3′;
Anti-sense primer: 5′-[…]-3′; primer length of 383 bp;
Internal standard GAPDH (Kangcheng Bio-tech Inc.), with sense primer as 5′-[…]-3′, anti-sense primer as 5′-[…]-3′, and length of 452 bp;
Reaction conditions: pre-denature at 94° C. for 2 min, denature at 94° C. for 45 s, anneal at 54.9° C. for 30 s, extend at 72° C. for 60 s, extend at 72° C. for 10 min after 35 cycles and detect with 1.2% agarose gel electrophoresis. Scan with gel image system and calculate the ratio of gray scale between CTGF and GAPDH as an indicator of CTGF expression.
According to the results from the MTT method, groups of 0, 10, and 50 mg/L RA were selected and subjected to RT-PCR.

hepatofibrosis in rats = assay: CCl4-induced hepatofibrosis in chronic hepatitis in rats; type: in vivo, Sprague Dawley rats; details: for T (Rank-sum test of fibrosis) / fiber proliferation level 0 (number of rats) / fiber proliferation level I (number of rats) / fiber proliferation level II (number of rats) / fiber proliferation level III (number of rats) / fiber proliferation level IV (number of rats) / HYP / HA / LN / PCIII: 6 weeks; for fiber proliferation level 0 (number of rats) / fiber proliferation level I (number of rats) / fiber proliferation level II (number of rats) / fiber proliferation level III (number of rats) / fiber proliferation level IV (number of rats): n=10; for HYP: hepatic; for HA / LN / PCIII: serum
Procedure: 120 rats were randomly divided into 12 groups, with 10 in each group, namely, a normal control group, a model group, […] Apart from the normal control group, all rats were s.c. injected 0.3 ml of 40% solution of CC14 in oil per 100 g of body weight once every 3 days for 6 weeks. Animals in the normal control group were s.c. injected 0.3 ml/100 g body weight of oil vehicle following the same schedule as the experimental groups. First dose was doubled for all animals. Six weeks later, drugs were continuously administered to animals in each group for 6 weeks. After the administration was completed, all animals were anaesthetised with i.p. injection of 20% ethyl carbamate solution (Beijing Tongxian District Yucai Fine Chemicals). Blood was collected from abdominal aorta. Hepatic lobule tissue was removed, part of which was fixed with 10% neutral foinialin solution and made into wax blocks within 24-48 hours. […] Serum HA, LN, Pc III levels and hepatic HYP level were determined according to the respective kit instructions.

O=C(/C=C/c1ccc(O)c(O)c1)O[C@H](Cc1ccc(O)c(O)c1)C(=O)O [RA, R(+)2-{[3-(3,4-dihydroxylphenyl-(oxo-2-propenyl)oxy]3,4-dihydroxylphenylpropionic acid]}]
CTGF mRNA expression rate (%) (CTGF mRNA; 10 mg/L): 71.2 ± 8.7 % | CTGF mRNA expression rate (%) (CTGF mRNA; 50 mg/L): 63.2 ± 9.2 % | CTGF mRNA expression in HSC-T6 (CTGF mRNA; 10 and 50 mg/L): significant inhibition on CTGF mRNA expression | T (Rank-sum test of fibrosis) (hepatofibrosis in rats; RA i.v. 2.5 mg/kg): 82* | fiber proliferation level 0 (number of rats) (hepatofibrosis in rats; RA i.v. 2.5 mg/kg): 0 | fiber proliferation level I (number of rats) (hepatofibrosis in rats; RA i.v. 2.5 mg/kg): 1 | fiber proliferation level II (number of rats) (hepatofibrosis in rats; RA i.v. 2.5 mg/kg): 2 | fiber proliferation level III (number of rats) (hepatofibrosis in rats; RA i.v. 2.5 mg/kg): 3 | fiber proliferation level IV (number of rats) (hepatofibrosis in rats; RA i.v. 2.5 mg/kg): 4 | T (Rank-sum test of fibrosis) (hepatofibrosis in rats; RA i.v. 5 mg/kg): 81.5* | fiber proliferation level 0 (number of rats) (hepatofibrosis in rats; RA i.v. 5 mg/kg): 0 | fiber proliferation level I (number of rats) (hepatofibrosis in rats; RA i.v. 5 mg/kg): 1 | fiber proliferation level II (number of rats) (hepatofibrosis in rats; RA i.v. 5 mg/kg): 2 | fiber proliferation level III (number of rats) (hepatofibrosis in rats; RA i.v. 5 mg/kg): 6 | fiber proliferation level IV (number of rats) (hepatofibrosis in rats; RA i.v. 5 mg/kg): 1 | T (Rank-sum test of fibrosis) (hepatofibrosis in rats; RA i.v. 25 mg/kg): 76* | fiber proliferation level 0 (number of rats) (hepatofibrosis in rats; RA i.v. 25 mg/kg): 0 | fiber proliferation level I (number of rats) (hepatofibrosis in rats; RA i.v. 25 mg/kg): 2 | fiber proliferation level II (number of rats) (hepatofibrosis in rats; RA i.v. 25 mg/kg): 3 | fiber proliferation level III (number of rats) (hepatofibrosis in rats; RA i.v. 25 mg/kg): 4 | fiber proliferation level IV (number of rats) (hepatofibrosis in rats; RA i.v. 25 mg/kg): 1 | T (Rank-sum test of fibrosis) (hepatofibrosis in rats; RA i.v. 75 mg/kg): 71** | fiber proliferation level 0 (number of rats) (hepatofibrosis in rats; RA i.v. 75 mg/kg): 0 | fiber proliferation level I (number of rats) (hepatofibrosis in rats; RA i.v. 75 mg/kg): 3 | fiber proliferation level II (number of rats) (hepatofibrosis in rats; RA i.v. 75 mg/kg): 2 | fiber proliferation level III (number of rats) (hepatofibrosis in rats; RA i.v. 75 mg/kg): 5 | fiber proliferation level IV (number of rats) (hepatofibrosis in rats; RA i.v. 75 mg/kg): 0 | T (Rank-sum test of fibrosis) (hepatofibrosis in rats; RA i.v. 150 mg/kg): 66** | fiber proliferation level 0 (number of rats) (hepatofibrosis in rats; RA i.v. 150 mg/kg): 0 | fiber proliferation level I (number of rats) (hepatofibrosis in rats; RA i.v. 150 mg/kg): 3 | fiber proliferation level II (number of rats) (hepatofibrosis in rats; RA i.v. 150 mg/kg): 4 | fiber proliferation level III (number of rats) (hepatofibrosis in rats; RA i.v. 150 mg/kg): 3 | fiber proliferation level IV (number of rats) (hepatofibrosis in rats; RA i.v. 150 mg/kg): 0 | T (Rank-sum test of fibrosis) (hepatofibrosis in rats; RA p.o. 2.5 mg/kg): 95 | fiber proliferation level 0 (number of rats) (hepatofibrosis in rats; RA p.o. 2.5 mg/kg): 0 | fiber proliferation level I (number of rats) (hepatofibrosis in rats; RA p.o. 2.5 mg/kg): 1 | fiber proliferation level II (number of rats) (hepatofibrosis in rats; RA p.o. 2.5 mg/kg): 2 | fiber proliferation level III (number of rats) (hepatofibrosis in rats; RA p.o. 2.5 mg/kg): 3 | fiber proliferation level IV (number of rats) (hepatofibrosis in rats; RA p.o. 2.5 mg/kg): 4 | T (Rank-sum test of fibrosis) (hepatofibrosis in rats; RA p.o. 5 mg/kg): 77* | fiber proliferation level 0 (number of rats) (hepatofibrosis in rats; RA p.o. 5 mg/kg): 0 | fiber proliferation level I (number of rats) (hepatofibrosis in rats; RA p.o. 5 mg/kg): 1 | fiber proliferation level II (number of rats) (hepatofibrosis in rats; RA p.o. 5 mg/kg): 2 | fiber proliferation level III (number of rats) (hepatofibrosis in rats; RA p.o. 5 mg/kg): 7 | fiber proliferation level IV (number of rats) (hepatofibrosis in rats; RA p.o. 5 mg/kg): 0 | T (Rank-sum test of fibrosis) (hepatofibrosis in rats; RA p.o. 25 mg/kg): 71** | fiber proliferation level 0 (number of rats) (hepatofibrosis in rats; RA p.o. 25 mg/kg): 0 | fiber proliferation level I (number of rats) (hepatofibrosis in rats; RA p.o. 25 mg/kg): 3 | fiber proliferation level II (number of rats) (hepatofibrosis in rats; RA p.o. 25 mg/kg): 2 | fiber proliferation level III (number of rats) (hepatofibrosis in rats; RA p.o. 25 mg/kg): 5 | fiber proliferation level IV (number of rats) (hepatofibrosis in rats; RA p.o. 25 mg/kg): 0 | T (Rank-sum test of fibrosis) (hepatofibrosis in rats; RA p.o. 150 mg/kg): 66** | fiber proliferation level 0 (number of rats) (hepatofibrosis in rats; RA p.o. 150 mg/kg): 0 | fiber proliferation level I (number of rats) (hepatofibrosis in rats; RA p.o. 150 mg/kg): 3 | fiber proliferation level II (number of rats) (hepatofibrosis in rats; RA p.o. 150 mg/kg): 4 | fiber proliferation level III (number of rats) (hepatofibrosis in rats; RA p.o. 150 mg/kg): 3 | fiber proliferation level IV (number of rats) (hepatofibrosis in rats; RA p.o. 150 mg/kg): 0 | T (Rank-sum test of fibrosis) (hepatofibrosis in rats; RA p.o. 300 mg/kg): 66** | fiber proliferation level 0 (number of rats) (hepatofibrosis in rats; RA p.o. 300 mg/kg): 0 | fiber proliferation level I (number of rats) (hepatofibrosis in rats; RA p.o. 300 mg/kg): 2 | fiber proliferation level II (number of rats) (hepatofibrosis in rats; RA p.o. 300 mg/kg): 5 | fiber proliferation level III (number of rats) (hepatofibrosis in rats; RA p.o. 300 mg/kg): 2 | fiber proliferation level IV (number of rats) (hepatofibrosis in rats; RA p.o. 300 mg/kg): 1 | liver, electronic microscopic examination (hepatofibrosis in rats; RA treated groups): hepatocyte damages were alleviated | liver, light microscopic examination (HE, VG collagen staining) (hepatofibrosis in rats; RA treated groups): less fiber connective tissue hyperplasia, thinner fibrous septa and less pseudolobule formation | liver fibrosis, pathology examination (hepatofibrosis in rats; all RA treated groups vs model group): less severe fibrosis | HYP (hepatofibrosis in rats; i.v. 2.5 mg/kg): 1657 ± 124 µg/L | HYP (hepatofibrosis in rats; i.v. 5 mg/kg): 1630 ± 110 µg/L | HYP (hepatofibrosis in rats; i.v. 25 mg/kg): 1578 ± 113 µg/L | HYP (hepatofibrosis in rats; i.v. 75 mg/kg): 1278 ± 121 µg/L | HYP (hepatofibrosis in rats; i.v. 150 mg/kg): 1217 ± 143 µg/L | HYP (hepatofibrosis in rats; p.o. 2.5 mg/kg): 1724 ± 121 µg/L | HYP (hepatofibrosis in rats; p.o. 5 mg/kg): 1614 ± 121 µg/L | HYP (hepatofibrosis in rats; p.o. 25 mg/kg): 1535 ± 125 µg/L | HYP (hepatofibrosis in rats; p.o. 150 mg/kg): 1299 ± 153 µg/L | HYP (hepatofibrosis in rats; p.o. 300 mg/kg): 1250 ± 174 µg/L | fibrosis (Rank-sum test) (hepatofibrosis in rats; i.v. 2.5, 5, 25, 75, 150 mg/kg, p.o. 5, 25, 150, 300 mg/kg): can significantly reduce fibrosis | HA, LN, Pc III and HYP levels vs model group (hepatofibrosis in rats; i.v. 2.5, 5, 25, 75, 150 mg/kg, p.o. 5, 25, 150, 300 mg/kg, p<0.05 or 0.01): can all significantly reduce HA, LN, Pc III, and HYP levels | HA (hepatofibrosis in rats; i.v. 2.5 mg/kg): 111.2 ± 24.1 µg/L | LN (hepatofibrosis in rats; i.v. 2.5 mg/kg): 72.6 ± 19.0 µg/L | PCIII (hepatofibrosis in rats; i.v. 2.5 mg/kg): 36.2 ± 7.8 µg/L | HA (hepatofibrosis in rats; i.v. 5 mg/kg): 106.3 ± 23.4 µg/L | LN (hepatofibrosis in rats; i.v. 5 mg/kg): 68.3 ± 17.9 µg/L | PCIII (hepatofibrosis in rats; i.v. 5 mg/kg): 34.2 ± 7.6 µg/L | HA (hepatofibrosis in rats; i.v. 25 mg/kg): 97.5 ± 23.6 µg/L | LN (hepatofibrosis in rats; i.v. 25 mg/kg): 62.0 ± 20.0 µg/L | PCIII (hepatofibrosis in rats; i.v. 25 mg/kg): 31.4 ± 7.8 µg/L | HA (hepatofibrosis in rats; i.v. 75 mg/kg): 77.9 ± 20.7 µg/L | LN (hepatofibrosis in rats; i.v. 75 mg/kg): 57.6 ± 16.8 µg/L | PCIII (hepatofibrosis in rats; i.v. 75 mg/kg): 26.5 ± 9.1 µg/L | HA (hepatofibrosis in rats; i.v. 150 mg/kg): 74.6 ± 18.9 µg/L | LN (hepatofibrosis in rats; i.v. 150 mg/kg): 55.3 ± 14.6 µg/L | PCIII (hepatofibrosis in rats; i.v. 150 mg/kg): 25.7 ± 7.8 µg/L | HA (hepatofibrosis in rats; p.o. 2.5 mg/kg): 113.8 ± 24.8 µg/L | LN (hepatofibrosis in rats; p.o. 2.5 mg/kg): 79.1 ± 19.4 µg/L | PCIII (hepatofibrosis in rats; p.o. 2.5 mg/kg): 38.0 ± 7.5 µg/L | HA (hepatofibrosis in rats; p.o. 5 mg/kg): 104.3 ± 26.4 µg/L | LN (hepatofibrosis in rats; p.o. 5 mg/kg): 69.3 ± 16.9 µg/L | PCIII (hepatofibrosis in rats; p.o. 5 mg/kg): 33.7 ± 7.3 µg/L | HA (hepatofibrosis in rats; p.o. 25 mg/kg): 97.0 ± 24.6 µg/L | LN (hepatofibrosis in rats; p.o. 25 mg/kg): 61.0 ± 20.6 µg/L | PCIII (hepatofibrosis in rats; p.o. 25 mg/kg): 31.6 ± 7.2 µg/L | HA (hepatofibrosis in rats; p.o. 150 mg/kg): 84.9 ± 20.5 µg/L | LN (hepatofibrosis in rats; p.o. 150 mg/kg): 59.6 ± 16.8 µg/L | PCIII (hepatofibrosis in rats; p.o. 150 mg/kg): 27.5 ± 9.6 µg/L | HA (hepatofibrosis in rats; p.o. 300 mg/kg): 80.7 ± 18.6 µg/L | LN (hepatofibrosis in rats; p.o. 300 mg/kg): 57.3 ± 18.6 µg/L | PCIII (hepatofibrosis in rats; p.o. 300 mg/kg): 26.9 ± 10.5 µg/L
